Experimental data: patent US6037337A (priority 1994, dated 2000)

Experiments:
[1] = tested on: non-tumor-bearing Fischer 344 rats; assay: Lethality (non-tumor bearing), within 7-10 days after administration; assay type: in vivo, Fischer 344 rat
Method: Lethality (Non-Tumor Bearing)
The toxicity was assessed by lethality within 7-10 days after administration of (R)-, (S)-, or (R,S)-ifosfamide in non-tumor-bearing Fischer 344 rats.

[2] = tested on: tumor-bearing F344 rats (MatB rat mammary carcinoma); assay: Lethality (tumor-bearing), toxic deaths; assay type: in vivo; conditions: for toxic deaths (of animals treated): tumor-bearing
Method: (§1) In order to help clarify the relative efficacies and toxicities of (S)-IFF and (R)-IFF, the effect of these enantiomers in F344 rats was investigated. Both non-tumor-bearing animals and those bearing a MatB rat mammary carcinoma were used in this study. The relative lethality, bone marrow suppression, weight loss, antitumor activity, and pharmacokinetics were determined for (R)-IFF, (S)-TFF and (R,S)-IFF.
Animal Model and Tumor Cells
(§2) MatB cells are maintained in vitro in α-minimum essential medium (GIBCO, Grand Island, N.Y.) supplemented with 1.3% sodium pyruvate, 2.6% glutamine, 1.3% non-essential amino acids, 10% fetal calf serum, and 100 units/ml gentamicin. Cells are maintained at 37° C. under 5% CO2. A suspension of 5×10^5 cells is injected s.c. into the flanks of female F344 rats weighing 160-200 g. Within 7-10 days, when there is a palpable nodule, the rats are lightly anesthetized with ether, and a single i.v. dose of ifosfamide is injected via the tail vein. The tumor size and animal weights are monitored every other day. On the basis of the conventional rat human dose conversion factor of 1:7 and idealised human body weights and surface areas of 70 kg and 1.5 m^2, the dose of 100 mg/kg in the rat represents approximately 600 mg/m^2 in humans, which is in the general range of clinical single doses, as described by De Kraker, supra. Statistical analysis was performed using an impaired Student's s test or Pearson's .chi.^2 analysis.
There were differences resulting in the presence of a tumor in these animals with regard to the effects of these treatments, and the data are therefore presented for each situation separately.

[3] = tested on: WBC; assay: Bone marrow suppression, WBC counts; assay type: in vivo, Fischer (F344) rat; conditions: for myelosuppression (WBC): 1 week after 125 mg/kg i.v.
Method: (§3) FIGS. 1A and 1B show peripheral blood counts obtained in tumor-bearing rats that received saline or ifosfamide treatment. […] There were 3-5 animals in each group. The following abbreviations etc. apply:
(§4) Determination of Myelotoxicity
(§5) For the studies of myelotoxicity, at least three animals/groups had blood obtained by cardiac puncture with a 23-gauge needle. The samples were heparinized and both WBC and platelet counts were determined using a Coulter Counter.
(§6) Measurements were made prior to and 1 week after i.v. injection of 125 mg/kg of (R,S)-, (R)-, or (S)-ifosfamide. […] In the presence of a tumor, the effects of a colony-stimulating factor are evidenced by higher WBC even prior to drug administration. Because the WBC progressively rises over time with exposure to the tumor, the intergroup variation in absolute WBC relates to differences in time from tumor inoculation to baseline WBC measurement and then drug administration.

[4] = tested on: platelets; assay: Bone marrow suppression, platelet counts; assay type: in vivo, Fischer (F344) rat; conditions: for thrombocytopenia: 1 week after 125 mg/kg i.v.
Method: as §3, §4, §5, §6

[5] = CNS toxicity monitoring in 7 female cancer patients; assay type: in vivo, human; conditions: racemate 3 g/m^2, 3 h infusion, mesna
Method: (§7) In a first investigation, the stereoselective urinary excretion of the parent drug, i.e. racemic ifosfamide, and its metabolites, was investigated. This followed a single dose of ifosfamide in 7 female cancer patients, while monitoring for CNS toxicity.
(§8) Patients received a 3 h infusion of ifosfamide (3 g/m^2) with mesna uroprotection, total urine output was collected for 27 h, and urine samples were analysed by enantioselective gas chromatography, as described by Granvil et al, J.Chromatogr. 622:21-31 (1993).
Since ifosfamide was the sole anti-cancer drug administered for the first chemotherapy cycle, toxicity data were not confounded by the effects of other anti-neoplastic agents.

[6] = tested on: childhood rhabdomyosarcoma (HxRh28); conditions: immunoincompetent female CBA/CaJ mice; cited from earlier work
[7] = single dose; cited from earlier work
[8] = cited from earlier work
[9] = Weight loss, every-other-day measurements; assay type: in vivo, F344 rat; conditions: 125 mg/kg
Method: as §2
Weight loss was determined by every-other-day measurements of groups of at least three rats.

[10] = tested on: MatB rat mammary carcinoma; assay: Antitumor efficacy in rats, enantiomer comparison; assay type: in vivo, Fischer (F344) rat; conditions: R-isomer; summary statement
Method: as §1
as §2, with “Statistical analysis was performed using an impaired Student's s test or Pearson's .chi.^2 analysis.” left out

[11] = Incubation with human liver microsomes, 2 and 3-dechlorometabolites by chiral assays; assay type: in vitro ADME; conditions: for 2 and 3-dechloro metabolites produced, R and S-ifosfamide incubated separately: separate enantiomers, compared with racemate results
[12] = Pharmacokinetics in rat plasma (GC-MS), AUC
[13] = Analysis of urine of 11 patients after 3 hour infusion of racemic ifosfamide; assay type: in vivo, human
Method: This is based on the results of the analysis of the urine of 11 patients who received a 3 hour infusion of racemic ifosfamide. Patients had not received chemotherapy for a year and ifosfamide was the only drug administered during the pharmacokinetic study.

[14] = Stereoselective urinary excretion of ifosfamide and metabolites in 7 female cancer patients; assay type: in vivo, human; conditions: patient with severe neurotoxicity vs 6 others
Method: as §7, §8
In patients with excessive N-dechloroethylation, R-ifosfamide could have an improved efficacy/toxicity.

[15] = CBA/CaJ mice; cited from earlier work
[16] = tested on: MatB subline selected for resistance to nitrogen mustards; assay: Melphalan resistance of MatB subline in vivo; parameters: species or system rat

Compound: O=P1(NCCCl)OCCCN1CCCl (racemic) [(R,S)-IFF, ifosfamide, reference compound]
- lethality (rats dead of rats treated) ([1]; 150 mg/kg): 2 of 4
- lethality (rats dead of rats treated) ([1]; 100 and 125 mg/kg): 1 of 5
- toxic deaths (of animals treated) ([2]; 100 mg/kg): 0 of 5
- toxic deaths (of animals treated) ([2]; 125 mg/kg): 4 of 10
- toxic deaths (of animals treated) ([2]; 150 mg/kg): 5 of 5
- myelosuppression (WBC) ([3]; tumor-bearing rats): significant myelosuppression
- myelosuppression (WBC) ([3]; tumor-free rats): myelosuppression is observed
- thrombocytopenia ([4]; non-tumor-bearing rats): significant thrombocytopenia
- severe neurotoxic syndrome (patients) ([5]; 7 female patients): One patient had a severe neurotoxic syndrome
- neurotoxic symptoms ([5]; one patient): somnolence, dizziness, lethargy, tremors, and hallucinations
- efficacy against HxRh28 xenograft, difference between stereoisomers [6]: no statistically significant differences
- compound metabolised through the N-dechloroethylation pathway [7]: 15-50%
- drug excreted unchanged [7]: 20-40%
- CNS side-effects ([8]; oral formulation): major dose-limiting side-effect
- dose at which CNS side-effects appeared, oral versus iv ([8]; oral vs iv): much lower dose
- chloroacetaldehyde levels after oral dosing ([8]; oral): higher levels of chloroacetaldehyde
- metabolism after oral dosing ([8]; oral): much more metabolism

Compound: O=[P@]1(NCCCl)OCCCN1CCCl [(R)-IFF, dexifosfamide]
- lethality (rats dead of rats treated) ([1]; 150 mg/kg): 2 of 4
- lethality (rats dead of rats treated) ([1]; 100 and 125 mg/kg, listed as (R)-ifosfamide): 1 of 5
- toxic deaths, compared to (R,S)-IFF ([2]; 125 mg/kg, chi-square): no difference
- toxic deaths, (R)-IFF compared to (S)-IFF ([2]; 125 mg/kg, chi-square, P=0.017): significant difference
- toxic deaths, (R)-IFF versus either (S)-IFF or (R,S)-IFF ([2]; 150 mg/kg, P=0.067): no significant difference
- toxic deaths (of animals treated) ([2]; 100 mg/kg): 1 of 5
- toxic deaths (of animals treated) ([2]; 125 mg/kg): 5 of 10
- toxic deaths (of animals treated) ([2]; 150 mg/kg): 5 of 5
- myelotoxicity in the Fischer rat ([3]; summary statement): more myelotoxic
- myelosuppression (WBC) ([3]; tumor-bearing rats): significant myelosuppression
- myelosuppression (WBC) ([3]; tumor-free rats): myelosuppression is observed
- platelet suppression compared to (R,S)- or (S)-ifosfamide ([4]; non-tumor-bearing rats, 125 mg/kg i.v., P<0.05): greater platelet suppression
- thrombocytopenia ([4]; non-tumor-bearing rats): significant thrombocytopenia
- weight loss [9]: appears greatest
- weight loss, statistical significance [9]: significantly so only at one time point
- effectiveness in treating the tumors in the rats [10]: trend to the R-isomer being more effective
- 2 and 3-dechloro metabolites produced, R and S-ifosfamide incubated separately [11]: broadly the same
- efficacy against HxRh28 xenograft, difference between stereoisomers [6]: no statistically significant differences
- clearance compared to (S)-IFF ([12]; rat): cleared more quickly
- AUC, AUCRS versus AUCR ([12]; rat plasma, 100 mg/kg i.v.): no statistically significant difference
- AUC, AUCR versus AUCS ([12]; rat plasma, 100 mg/kg i.v., P<0.01): statistically significant differences
- metabolism via the activation pathway, compared to (S)-IFF ([12]; rat, inferred from AUC): metabolized to a greater degree

Compound: O=[P@@]1(NCCCl)OCCCN1CCCl [(S)-IFF, levoifosfamide]
- lethality (rats dead of rats treated) ([1]; 150 mg/kg): 0 of 4
- lethality (rats dead of rats treated) ([1]; 100 and 125 mg/kg, listed as (S)-ifosfamide): 0 of 5
- toxic deaths, compared to (R,S)-IFF ([2]; 125 mg/kg, chi-square): no difference
- toxic deaths (of animals treated) ([2]; 100 mg/kg): 0 of 5
- toxic deaths (of animals treated) ([2]; 125 mg/kg): 2 of 10
- toxic deaths (of animals treated) ([2]; 150 mg/kg, listed as (S)-ifosfamide): 3 of 5
- myelosuppression (WBC) ([3]; tumor-bearing rats): no such effect after (S)-IFF where the WBC is higher
- myelosuppression (WBC) ([3]; tumor-free rats): not statistically significant
- thrombocytopenia ([4]; non-tumor-bearing rats): significant thrombocytopenia
- platelet suppression compared to (R)- or (R,S)-ifosfamide ([4]; tumor-bearing rats, 125 mg/kg i.v.): significantly less
- origin of side-chain metabolites in urine [13]: side-chain metabolites come from S-ifosfamide more than from R-ifosfamide
- excretion of dechloroethylated metabolites from S-ifosfamide [14]: much higher excretion
- 2 and 3-dechloro metabolites produced, compared to R-ifosfamide ([11]; racemic ifosfamide incubated): greater amounts
- 2 and 3-dechloro metabolites produced, R and S-ifosfamide incubated separately [11]: broadly the same
- efficacy against HxRh28 xenograft, difference between stereoisomers [6]: no statistically significant differences
- plasma pharmacokinetics, differences [15]: No statistically significant differences
- metabolism via N-dechloroethylation, compared to (R)-IFF ([12]; stated with the rat AUC results): metabolized to a greater extent

Compound: N[C@@H](Cc1ccc(N(CCCl)CCCl)cc1)C(=O)O [melphalan]
- resistance to melphalan [16]: at least 4 fold
